Tested on: diarrhea-predominant IBS subjects
Format: in vivo, human
Settings: TEAE incidence, 2 mg, Safety Population; PT
Description: The study was performed in approximately 150 study centers. Approximately 1600 eligible subjects were to be given cilansetron 2 mg TID. At Visit 1, pre-treatment assessments were conducted. […] Subjects were to return to the study site one month later for Visit 3 (Day 31) for their first interim assessment. […] All subjects who discontinued from the study were to have the same post-study assessments required at Visit 7 performed at their early termination visit. […]
Stool specimens were analyzed at every visit for occult blood. An independent GERB had been established to provide advice on GI AEs during the course of the study.
Adverse events were assessed at Baseline, at each clinic visit, and at the end of the study (Month 12 or the early termination visit). All AEs, which occurred during the study were followed up in accordance with good medical practice until resolved or judged no longer clinically significant, or if a condition was chronic, until fully characterized. Adverse events could occur in the specified follow-up period and, regardless of the interval since the last administration of the study medication, were treated in the same manner as an AE which occurred during the treatment with study medication. Each AE was evaluated for duration, severity, seriousness, and causal relationship to the investigational drug. The action taken and the outcome were also recorded.
Specifically, subjects who were lost to follow-up and had no post-Baseline contact with the site were excluded from the Safety population. The subjects who discontinued from the study due to lost to follow-up were identified based on the information collected on the study termination CRF page.
After the pretreatment assessment at Visit 1 (Days […] to −3), subjects were to return to the study site for a Baseline assessment and start the treatment at Visit 2 (Day 1).
For the by time-interval analyses of disposition, prevalence of AEs, and of markedly abnormal and predefined changes in laboratory values, vital signs, and ECGs, the following interval windows were used:
Adverse events that were already present prior to the first dose of cilansetron study medication but increased in severity afterwards were considered as treatment-emergent.
The 5% cutoff point was based on the incidence within higher level terms.
Subjects were counted at most once for each primary system organ class and preferred term. Serious AEs that resolved prior to receiving study medication or occurred more than 30 days after the last dose of study medication were not included in the incidence tables. A listing of all SAEs is presented; SAEs with onset prior to receiving study medication or more than 30 days after discontinuation of study medication were flagged. The listing presents lower level term and preferred term of the SAE, severity, action taken, outcome, and relationship of the SAE, start and stop date of the SAE, study day of onset of the SAE, age, race, and sex.

Cc1nccn1C[C@H]1CCc2c(c3cccc4c3n2CCC4)C1=O [cilansetron, (R)-(−)-4,5,6,8,9,10-hexahydro-10-[(2-methyl-1H-imidazol-1-yl)methyl]-11H-pyrido-[3,2,1-jk]-carbazol-11-one]
3 (<1%) n (%): Diabetes Mellitus NOS | Distension NOS | Eczema | Head Injury | Hyperlipidaemia NOS | Hypokalaemia | Joint Sprain | Laryngitis NOS
21 (1%) n (%): Depression
1 (<1%) n (%): Cervical Disc Lesion | Chest Discomfort | Chromaturia | Chronic Obstructive Airways Disease Exacerbated | Clavicle Fracture | Cystocele* | Dandruff | Depressed Mood | Dermatitis Contact | Diabetes Mellitus Non-Insulin-Dependent | Discoid Lupus Erythematosus | Dissociation | Dry Skin | Epidermal Cyst | Erythema | Fear of Falling | Fibula Fracture | Fluid Retention | Food Intolerance NOS | Forearm Fracture | Foreign Body in Eye | Genital Discharge | Genital Pain NOS | Glycosuria | Gout | Gynaecomastia* | Hand Fracture | Hangover | Heat Rash | Hoarseness | Hunger | Hypercholesterolaemia Aggravated | Hyperkalaemia | Hyponatraemia Aggravated | Inguinal Mass | Injury NOS | Joint Dislocation | Lethargy | Libido Decreased | Loin Pain | Loss of Libido | Major Depressive Disorder NOS | Menopausal Symptoms* | Menorrhagia* | Menses Delayed* | Mental Disorder NOS | Mood Alteration NOS | Muscle Tightness | Muscle Twitching | Musculoskeletal Discomfort | Musculoskeletal Pain | Nail Discolouration | Nail Disorder NOS | Nasal Ulcer | Neck Injury NOS | Neck Stiffness
7 (<1%) n (%): Muscle Strain
8 (<1%) n (%): Hypercholesterolaemia | Hypertriglyceridaemia | Influenza Like Illness | Limb Injury NOS | Neck Pain
12 (<1%) n (%): Chest Pain
5 (<1%) n (%): Dyspnoea NOS | Dysuria | Maxillary Sinusitis
20 (1%) n (%): Fatigue | Insomnia
2 (<1%) n (%): Contusion | Coronary Artery Disease NOS | Dermatitis NOS | Difficulty in Micturition | Dysmenorrhoea* | Dyspnoea Exacerbated | Epistaxis | Erectile Dysfunction NOS* | Extrasystoles NOS | Face Injury | Fall | Foot Fracture | Groin Pain | Haematuria | Intervertebral Disc Herniation | Joint Stiffness | Joint Swelling | Laceration | Leukocyturia | Localised Osteoarthritis | Malaise | Monoarthritis | Mood Swings | Muscle Injury NOS | Muscle Spasms | Musculoskeletal Chest Pain | Nasal Congestion
26 (2%) n (%): Cough
6 (<1%) n (%): Depression Aggravated | Muscle Cramps
11 (<1%) n (%): Dermatitis Allergic | Myalgia
4 (<1%) n (%): Hyperglycaemia NOS | Hypotrichosis | Ligament Injury NOS | Myocardial Ischaemia
